One compound from patent US10064975B2, “Method for coating skin abrasion, laceration, burn or oedema after surgery” (Lilac Laboratory Co., Ltd., priority 2014, dated 2018) can be followed below.

Each structure is given as a SMILES string.

A short description of this data set: pH. It is filed as physicochemical. Conditions: less affected by the concentration. The text has this: According to the present invention, an active ingredient, aluminium chloride hydrate, is preferably used at the practical range of 0.005% to 20% by weight in view of the strong acidity thereof and tissue irritating nature. The pH of aluminium chloride is less affected by the concentration and is as low as around pH 1.9. Aluminium chloride has strong tissue irritating nature, and thus is more preferably adjusted to pH of 2.8 to 6.0 in practical use.
In the present Example, in order to reduce irritating nature at affected areas due to the acidity of aluminium chloride, 3.0% of the 10% sodium hydroxide solution was added to neutralise, the produced precipitate was removed by filtration and pH was adjusted to 3.9. […] Therefore, the 70% ethanol preparation was added as a fungicide.
In the present Example, in order to reduce irritating nature at affected areas due to the acidity of aluminium chloride, the solution was neutralised with sodium hydroxide and adjusted to pH 3.5, and the precipitate was removed by filtration.

On to `[Cl][Al]([Cl])[Cl]` [aluminium chloride], for which the “pH of aluminium chloride” value was approximately 1.9.
